{"source": "patent US20110207740A1", "about": "“PHARMACEUTICAL COMPOSITIONS” (priority 2003, published 2011)", "key": {"[1]": {"assay": "Aqueous solubility (buffers, pH dependence)", "format": "physicochemical", "source_text": "As expected, solubility improves with ionization. […] This type of decrease in solubility is consistent with the formation of insoluble chloride salts. […] However, as shown in the Table 1 below, the A2a receptor antagonist compound described above has both low aqueous and non-aqueous solubility."}, "[2]": {"assay": "Formula I:docusate complex dissolved in propylene glycol (Example 1)", "format": "physicochemical", "method": "A non-aqueous embodiment of the formulations of the present invention was prepared as set forth by the following procedure. A first solution was prepared by adding 100 mg of the compound of Formula I above to 500 mL of 0.01 NHCL. Next, a second Solution was prepared by adding 20 grams of sodium docusate to 500 mL of 0.01 NHCL. These two solutions were mixed and a complex of the compound of Formula I and docusate sodium was precipitated from solution. The precipitate was thereafter separated by centrifuging the mixture, decanting the supernatant and then drying the residue complex.\nThe dried residue was then dissolved in a small quantity of propylene glycol and the concentration of the compound of Formula I in this solution was determined to be 2.5 mg/mL."}, "[3]": {"assay": "Extraction of Formula 1 from stock solutions into soybean oil", "format": "physicochemical", "settings": "excess Formula 1"}, "[4]": {"assay": "Formula 1 concentration in acidified propylene glycol stock solutions and after dilution with deionized water", "format": "physicochemical", "source_text": "[table] […] In this way, the concentration of propylene glycol was decreased 10 fold from the initial concentration of 86% to a final concentration of 8.6%. […] Similarly, Formula 1 solubility should not be affected by the 2-10× dilution of sodium docusate as this surfactant will still be present at levels above its critical micelle concentration (CMC)."}, "[5]": {"assay": "Precipitation from acidic aqueous solution in presence of sodium docusate", "format": "physicochemical", "settings": "pH 2.0, 0.1 mg/mL aqueous solution", "source_text": "For aqueous formulations of the present invention, surfactants such sodium docusate are typically added to improve aqueous solubility. However, sodium docusate actually decreases the aqueous solubility of 7-[2-[4-[4-(methoxyethoxy)phenyl]1-piperazinyl]ethyl]-2-(2-furanyl)-7H-pyrazolo[4,3-e]triazolo[1,5-c]pyrimidin-5-amine under acidic conditions. […] More specifically, by “ion-pair” it is meant to mean the non-covalent bonding of two oppositely charged molecules."}, "[6]": {"molecular_target": "A2a receptor (Homo sapiens, UniProt P29274)", "sequence (P29274 whole entry)": "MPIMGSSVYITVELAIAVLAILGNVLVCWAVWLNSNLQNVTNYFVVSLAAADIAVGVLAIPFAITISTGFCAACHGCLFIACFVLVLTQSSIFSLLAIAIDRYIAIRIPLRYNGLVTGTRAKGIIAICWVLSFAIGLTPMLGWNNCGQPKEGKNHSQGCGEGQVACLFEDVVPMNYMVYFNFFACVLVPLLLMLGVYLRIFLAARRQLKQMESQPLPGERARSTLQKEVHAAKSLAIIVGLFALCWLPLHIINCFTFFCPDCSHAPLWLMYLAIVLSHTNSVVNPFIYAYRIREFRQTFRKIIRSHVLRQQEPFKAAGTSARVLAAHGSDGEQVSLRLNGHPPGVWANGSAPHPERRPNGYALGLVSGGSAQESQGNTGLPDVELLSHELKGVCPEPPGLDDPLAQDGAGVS", "settings": "cited from earlier work"}, "[7]": {"assay": "Non-aqueous solubility (ethanol, propylene glycol, soybean oil)", "format": "physicochemical", "source_text": "However, as shown in the Table 1 below, the A2a receptor antagonist compound described above has both low aqueous and non-aqueous solubility."}, "[8]": {"assay": "pKa (titrated)", "format": "physicochemical", "method": "As expected, solubility improves with ionization. However, even when essentially all of the compound carries a +1 charge, the aqueous solubility remains poor, e.g., at pH 4 the solubility is <2 μg/mL. Similarly, at pH 2 the average charge will be +2 but, the solubility for this strongly charged compound is only 1 mg/mL. Based on the pKa values, under still more acidic conditions this compound will have an average charge of +3 and the solubility might be expected to increase further. However, no further increase in solubility has been achieved, i.e., at pH 1.0 (0.1 NHCL) the solubility of this compound decreases to <1 mg/mL. This type of decrease in solubility is consistent with the formation of insoluble chloride salts."}}}
{"molecule": "COCCOc1ccc(N2CCN(CCn3ncc4c3nc(N)n3nc(-c5ccco5)nc43)CC2)cc1", "note": "[Formula 1, 7-[2-[4-[4-(methoxyethoxy)phenyl]1-piperazinyl]ethyl]-2-(2-furanyl)-7H-pyrazolo[4,3-e]triazolo[1,5-c]pyrimidin-5-amine]", "values": [{"measurement": "solubility", "setting": "[1]; 0.1 N HCl, pH 1, simulated gastric fluid, pH 1.0 (0.1 NHCL)", "result": "< 1000", "unit": "µg/mL"}, {"measurement": "Aqueous Solubility", "setting": "[1]; Buffer pH 4", "result": 1.7, "unit": "µg/mL"}, {"measurement": "solubility", "setting": "[1]; aqueous buffer, pH 3, aqueous buffer, Buffer pH 3", "result": 105, "unit": "µg/mL"}, {"measurement": "solubility", "setting": "[1]; aqueous buffer, pH 4, aqueous buffer, Buffer pH 4", "result": "< 2", "unit": "µg/mL"}, {"measurement": "solubility", "setting": "[1]; aqueous buffer, pH 7.4, aqueous buffer, Buffer pH 7.4", "result": "< 0.005", "unit": "µg/mL"}, {"measurement": "solubility", "setting": "[1]; aqueous medium, pH 2, simulated gastric fluid, pH 2", "result": 1000, "unit": "µg/mL"}, {"measurement": "Solubility in aqueous media", "setting": "[1]; neutral pH", "result": "virtually insoluble"}, {"measurement": "Solubility relative to compound alone in propylene glycol", "setting": "[2]; Formula I:docusate complex in propylene glycol", "result": "more than 80 fold"}, {"measurement": "Concentration of the compound of Formula I in propylene glycol solution", "setting": "[2]; dried Formula I:docusate sodium complex dissolved in propylene glycol", "result": 2500, "unit": "µg/mL"}, {"measurement": "Concentration relative to active compound and propylene glycol only", "setting": "[2]; formulated with docusate sodium in acidified propylene glycol", "result": 80, "unit": "times"}, {"measurement": "Soybean Oil Amt. Extracted", "setting": "[3]; extracted from stock solution 1 (acidified propylene glycol)", "result": 0.006, "unit": "mg/mL"}, {"measurement": "Soybean Oil Amt. Extracted", "setting": "[3]; extracted from stock solution 2 (acidified propylene glycol + Tween 80)", "result": 0.007, "unit": "mg/mL"}, {"measurement": "Soybean Oil Amt. Extracted", "setting": "[3]; extracted from stock solution 3 (acidified propylene glycol + docusate sodium)", "result": 0.28, "unit": "mg/mL"}, {"measurement": "Formula 1 concentration, 86% PG/(Stock)", "setting": "[4]; Stock solution 1: acidified propylene glycol (86% v/v, citric acid/HCl to pH 3.4), undiluted", "result": 9.8, "unit": "mg/mL"}, {"measurement": "Formula 1 concentration, 43% PG/DF2", "setting": "[4]; Stock solution 1: acidified propylene glycol, diluted with deionized water DF2", "result": 4.6, "unit": "mg/mL"}, {"measurement": "Formula 1 concentration, 17% PG/DF4", "setting": "[4]; Stock solution 1: acidified propylene glycol, diluted with deionized water DF4", "result": 1.9, "unit": "mg/mL"}, {"measurement": "Formula 1 concentration, 8.6% PG/DF10", "setting": "[4]; Stock solution 1: acidified propylene glycol, diluted with deionized water DF10", "result": 0.97, "unit": "mg/mL"}, {"measurement": "Formula 1 concentration, 86% PG/(Stock)", "setting": "[4]; Stock solution 2: acidified propylene glycol + 36 mg/mL Tween 80, undiluted", "result": 8.7, "unit": "mg/mL"}, {"measurement": "Formula 1 concentration, 43% PG/DF2", "setting": "[4]; Stock solution 2: acidified propylene glycol + Tween 80, diluted with deionized water DF2", "result": 4.0, "unit": "mg/mL"}, {"measurement": "Formula 1 concentration, 17% PG/DF4", "setting": "[4]; Stock solution 2: acidified propylene glycol + Tween 80, diluted with deionized water DF4", "result": 1.8, "unit": "mg/mL"}, {"measurement": "Formula 1 concentration, 8.6% PG/DF10", "setting": "[4]; Stock solution 2: acidified propylene glycol + Tween 80, diluted with deionized water DF10", "result": 0.78, "unit": "mg/mL"}, {"measurement": "Formula 1 concentration, 86% PG/(Stock)", "setting": "[4]; Stock solution 3: acidified propylene glycol + 61 mg/mL docusate sodium, undiluted", "result": 9.2, "unit": "mg/mL"}, {"measurement": "Formula 1 concentration, 43% PG/DF2", "setting": "[4]; Stock solution 3: acidified propylene glycol + docusate sodium, diluted with deionized water DF2", "result": 0.14, "unit": "mg/mL"}, {"measurement": "Formula 1 concentration, 17% PG/DF4", "setting": "[4]; Stock solution 3: acidified propylene glycol + docusate sodium, diluted with deionized water DF4", "result": 0.037, "unit": "mg/mL"}, {"measurement": "Formula 1 concentration, 8.6% PG/DF10", "setting": "[4]; Stock solution 3: acidified propylene glycol + docusate sodium, diluted with deionized water DF10", "result": 0.011, "unit": "mg/mL"}, {"measurement": "Maximum concentration relative to solubility in propylene glycol", "setting": "[4]; acidified propylene glycol without docusate", "result": 300, "unit": "times"}, {"measurement": "Concentration relative to solubility in propylene glycol", "setting": "[4]; direct addition to acidified propylene glycol and docusate", "result": "greater than 300 times"}, {"measurement": "Concentration in acidified propylene glycol solution", "setting": "[4]; propylene glycol solution acidified to ionize the active compound", "result": "more than 9 mg/mL"}, {"measurement": "Behaviour of solution in presence of sodium docusate", "setting": "[5]", "result": "precipitate out of solution"}, {"measurement": "Potency as an A2a receptor antagonist", "setting": "[6]", "result": "considerable potency"}, {"measurement": "solubility", "setting": "[7]; ethanol, organic solvent or mixture", "result": 100, "unit": "µg/mL"}, {"measurement": "solubility", "setting": "[7]; propylene glycol, organic solvent or mixture, Propylene Glycol (neutral compound)", "result": "~30", "unit": "µg/mL"}, {"measurement": "solubility", "setting": "[7]; soybean oil, oil or lipid", "result": "< 70", "unit": "µg/mL"}, {"measurement": "pKa", "setting": "[8]", "result": 6.87}]}
